# PMC11876601 (Molecular Systems Biology, 2025)
# Like-named read-outs stand apart in the source and are kept apart here.
# How the values were obtained:
# Test in all cases: cells
# [1] = system: AsPC-1; parameters: ATPlite luminescence viability of PDAC cell lines, 11-dose single-agent curves, 4-parameter fit; conditions: Homo sapiens, ASPC1, 72 h, read-out: EC50 [nM]
# How it was run: (§1)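 Drug-combination screening used cells plated at 1000 to 5000 per well one day before treatment. Final DMSO was 0.2%. Each plate held untreated negative-control wells and 5 µM staurosporine positive-control wells.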
# [2] = system: Dan-G; parameters: ATPlite luminescence viability of PDAC cell lines, 11-dose single-agent curves, 4-parameter fit; conditions: 72 h, read-out: EC50 [nM]
# How it was run: as §1
# [3] = system: MiaPaCa-2; parameters: ATPlite luminescence viability of PDAC cell lines, 11-dose single-agent curves, 4-parameter fit; conditions: Homo sapiens, MIA PaCa-2, 72 h, read-out: EC50 [nM]
# How it was run: as §1
# [4] = system: FAMPAC; parameters: ATPlite luminescence viability of PDAC cell lines, 11-dose single-agent curves, 4-parameter fit; conditions: 72 h, read-out: EC50 [nM]
# How it was run: as §1
# [5] = system: PANC-1; parameters: ATPlite luminescence viability of PDAC cell lines, 11-dose single-agent curves, 4-parameter fit; conditions: Homo sapiens, PANC-1, 72 h, read-out: EC50 [nM]
# How it was run: as §1
# [6] = system: Suit2-07; parameters: ATPlite luminescence viability of PDAC cell lines, 11-dose single-agent curves, 4-parameter fit; conditions: 72 h, read-out: EC50 [nM]
# How it was run: as §1
# [7] = system: BxPC-3; parameters: ATPlite luminescence viability of PDAC cell lines, 11-dose single-agent curves, 4-parameter fit; conditions: Homo sapiens, BXPC-3, 72 h, read-out: EC50 [nM]
# How it was run: as §1
# [8] = system: PSN-1; parameters: ATPlite luminescence viability of PDAC cell lines, 11-dose single-agent curves, 4-parameter fit; conditions: Homo sapiens, PSN1, 72 h, read-out: EC50 [nM]
# How it was run: as §1
# [9] = system: Capan-1; parameters: ATPlite luminescence viability of PDAC cell lines, 11-dose single-agent curves, 4-parameter fit; conditions: Homo sapiens, CAPAN-1, 72 h, read-out: EC50 [nM]
# How it was run: as §1
# [10] = system: HPDE; parameters: ATPlite luminescence viability of PDAC cell lines, 11-dose single-agent curves, 4-parameter fit; conditions: HPDE, 72 h, read-out: EC50 [nM]
# How it was run: as §1
# [11] = system: Colo-357; parameters: ATPlite luminescence viability of PDAC cell lines, 11-dose single-agent curves, 4-parameter fit; conditions: Homo sapiens, COLO357, 72 h, read-out: EC50 [nM]
# How it was run: as §1
# [12] = system: PaTu-8988-T; parameters: ATPlite luminescence viability of PDAC cell lines, 11-dose single-agent curves, 4-parameter fit; conditions: Homo sapiens, PaTu 8988t, 72 h, read-out: EC50 [nM]
# How it was run: as §1
# [13] = system: HuP-T4; parameters: Viability of PDAC cell lines, ATPlite luminescence, 11-dose single-agent curve fit; conditions: Homo sapiens, HuP-T4, 72 h, read-out: EC50 [nM]
# How it was run: (§2)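 screening used cells plated at 1000 to 5000 per well one day before treatment. Final DMSO was 0.2%. Each plate held untreated negative-control wells and 5 µM staurosporine positive-control wells.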
# [14] = system: HuP-T4; parameters: ATPlite luminescence viability of PDAC cell lines, 11-dose single-agent curves, 4-parameter fit; conditions: Homo sapiens, HuP-T4, 72 h, read-out: EC50 [nM]
# How it was run: as §1
# [15] = system: PANC-1; parameters: Viability of PDAC cell lines, ATPlite luminescence, 11-dose single-agent curve fit; conditions: Homo sapiens, PANC-1, 72 h, read-out: EC50 [nM]
# How it was run: as §2
# [16] = system: Capan-1; parameters: Viability of PDAC cell lines, ATPlite luminescence, 11-dose single-agent curve fit; conditions: Homo sapiens, CAPAN-1, 72 h, read-out: EC50 [nM]
# How it was run: as §2
# [17] = system: HPDE; parameters: Viability of PDAC cell lines, ATPlite luminescence, 11-dose single-agent curve fit; conditions: HPDE, 72 h, read-out: EC50 [nM]
# How it was run: as §2
# [18] = system: AsPC-1; parameters: Viability of PDAC cell lines, ATPlite luminescence, 11-dose single-agent curve fit; conditions: Homo sapiens, ASPC1, 72 h, read-out: EC50 [nM]
# How it was run: as §2
# [19] = system: Dan-G; parameters: Viability of PDAC cell lines, ATPlite luminescence, 11-dose single-agent curve fit; conditions: 72 h, read-out: EC50 [nM]
# How it was run: as §2
# [20] = system: BxPC-3; parameters: Viability of PDAC cell lines, ATPlite luminescence, 11-dose single-agent curve fit; conditions: Homo sapiens, BXPC-3, 72 h, read-out: EC50 [nM]
# How it was run: as §2
# [21] = system: PaTu-8988-T; parameters: Viability of PDAC cell lines, ATPlite luminescence, 11-dose single-agent curve fit; conditions: Homo sapiens, PaTu 8988t, 72 h, read-out: EC50 [nM]
# How it was run: as §2
# [22] = system: Colo-357; parameters: Viability of PDAC cell lines, ATPlite luminescence, 11-dose single-agent curve fit; conditions: Homo sapiens, COLO357, 72 h, read-out: EC50 [nM]
# How it was run: as §2
# [23] = system: MiaPaCa-2; parameters: Viability of PDAC cell lines, ATPlite luminescence, 11-dose single-agent curve fit; conditions: Homo sapiens, MIA PaCa-2, 72 h, read-out: EC50 [nM]
# How it was run: as §2
# [24] = system: Suit2-07; parameters: Viability of PDAC cell lines, ATPlite luminescence, 11-dose single-agent curve fit; conditions: 72 h, read-out: EC50 [nM]
# How it was run: as §2
# [25] = system: PSN-1; parameters: Viability of PDAC cell lines, ATPlite luminescence, 11-dose single-agent curve fit; conditions: Homo sapiens, PSN1, 72 h, read-out: EC50 [nM]
# How it was run: as §2
# [26] = system: FAMPAC; parameters: Viability of PDAC cell lines, ATPlite luminescence, 11-dose single-agent curve fit; conditions: 72 h, read-out: EC50 [nM]
# How it was run: as §2
Structure (SMILES),EC50 [1] [nM],EC50 [3] [nM],EC50 [5] [nM],EC50 [7] [nM],EC50 [11] [nM],EC50 [15] [nM],EC50 [18] [nM],EC50 [2] [nM],EC50 [4] [nM],EC50 [6] [nM],EC50 [8] [nM],EC50 [9] [nM],EC50 [10] [nM],EC50 [12] [nM],EC50 [13] [nM],EC50 [17] [nM],also measured
COc1cc2c(Oc3ccc4[nH]c(C)cc4c3F)ccnc2cc1OCC1(N)CC1 [Anlotinib],3160,1720,1960,1520,2350,–,–,1850,1580,1270,1920,2440,6100,1520,> 10000,–,–
COc1cc2c(Oc3ccc4[nH]c(C)cc4c3F)ncnc2cc1OCCCN1CCCC1 [Cediranib],7780,10100,–,7970,10300,7310,–,6330,> 10000,> 10000,> 10000,–,–,6380,–,4910,EC50 [14]: 8450 nM; EC50 [16]: 8290 nM
C[C@@H](Oc1cc(-c2cnn(C3CCNCC3)c2)cnc1N)c1c(Cl)ccc(F)c1Cl [Crizotinib],7880,840,> 10000,> 10000,3820,–,–,2500,5990,2260,10200,–,8110,> 10000,2760,–,EC50 [16]: 1780 nM
CC1(C)CC=C(c2nc(C3CC(C)(C)OC(C)(C)C3)ccc2NC(=O)c2nc(C#N)c[nH]2)CC1 [Edicotinib],2570,3040,3070,1960,4490,–,–,3250,2850,2380,2160,3970,2070,2070,1370,–,–
CO[C@@H]1[C@H](N(C)C(=O)c2ccccc2)C[C@H]2O[C@]1(C)n1c3ccccc3c3c4c(c5c6ccccc6n2c5c31)C(=O)NC4 [Midostaurin],–,–,–,–,–,–,–,–,–,–,–,–,–,385,–,221,EC50 [14]: 692 nM
CCCCCCCCCCCCCCCCCCOP(=O)([O-])OC1CC[N+](C)(C)CC1 [Perifosine],–,2990,2590,–,> 10000,–,> 10000,–,3030,2140,2340,–,1280,–,0.04,–,EC50 [19]: > 10000 nM; EC50 [20]: 1410 nM; EC50 [16]: > 10000 nM; EC50 [21]: 9320 nM
COc1cc(OC)c(/C=C/S(=O)(=O)Cc2ccc(OC)c(NCC(=O)O)c2)c(OC)c1 [Rigosertib],863,324,313,63.2,256,–,–,66,28.2,2170,86.5,178,–,607,809,48.2,–
Cc1nc(-c2cn3c(n2)-c2ccc(-c4cnn(C(C)(C)C(N)=O)c4)cc2OCC3)n(C(C)C)n1 [Taselisib],873,446,1570,245,27.1,–,–,37.1,–,141,–,2920,826,459,19.8,–,EC50 [26]: > 10000 nM; EC50 [25]: 7930 nM
CN1CCC(COc2cnc(-c3cccc(Cn4nc(-c5cccc(C#N)c5)ccc4=O)c3)nc2)CC1 [Tepotinib],> 10000,7010,3.11,10300,11.5,–,–,8.91,> 10000,7810,4160,23.4,–,6390,268,7650,–

# Second part, led by results:
EC50 [1] [nM],EC50 [3] [nM],EC50 [5] [nM],EC50 [7] [nM],EC50 [11] [nM],EC50 [15] [nM],EC50 [18] [nM],Structure (SMILES),EC50 [2] [nM],EC50 [4] [nM],EC50 [6] [nM],EC50 [8] [nM],EC50 [9] [nM],EC50 [10] [nM],EC50 [12] [nM],EC50 [13] [nM],EC50 [17] [nM],also measured
2150,4480,> 10000,7410,–,–,–,CNC(=O)c1cc(Oc2ccc(NC(=O)Nc3ccc(Cl)c(C(F)(F)F)c3)c(F)c2)ccn1 [Regorafenib],4480,> 10000,> 10000,1430,6350,9210,> 10000,> 10000,–,EC50 [22]: 7480 nM
–,–,–,> 10000,–,1620,8110,CN(C)C[C@@H]1CCn2cc(c3ccccc32)C2=C(C(=O)NC2=O)c2cn(c3ccccc23)CCO1 [Ruboxistaurin],–,> 10000,–,> 10000,–,> 10000,> 10000,–,–,EC50 [14]: > 10000 nM; EC50 [19]: 5180 nM; EC50 [23]: 6440 nM; EC50 [24]: 3050 nM; EC50 [16]: 8680 nM; EC50 [22]: 5.38 nM
–,51.6,–,863,–,142,4140,CN1CCN(CCOc2cc(OC3CCOCC3)c3c(Nc4c(Cl)ccc5c4OCO5)ncnc3c2)CC1 [Saracatinib],1160,4910,1340,–,2210,1430,–,> 10000,–,EC50 [25]: 4260 nM; EC50 [22]: 869 nM; EC50 [21]: 244 nM
–,> 10000,–,10200,–,7780,> 10000,CNC(=O)c1cc(Oc2ccc(NC(=O)Nc3ccc(Cl)c(C(F)(F)F)c3)cc2)ccn1 [Sorafenib],7810,> 10000,9770,3820,8320,7960,> 10000,10200,–,EC50 [22]: 4370 nM
346,313,389,–,536,–,–,O=C1NC(=O)[C@@H](c2cn3c4c(cccc24)CCC3)[C@@H]1c1c[nH]c2ccccc12 [Tivantinib],412,317,191,215,603,–,347,> 10000,143,–
–,> 10000,–,> 10000,6590,> 10000,6600,COc1cc2nccc(Oc3ccc(NC(=O)Nc4cc(C)on4)c(Cl)c3)c2cc1OC [Tivozanib],> 10000,> 10000,–,5040,9830,–,> 10000,4120,> 10000,EC50 [24]: > 10000 nM
